# Measurements published in US20130303507A1 (Novartis AG, priority 2011, published 2013).
# pIC50: −log10 of the molar value. “And” between values parts separate entries of the source, which are not always exact repeats. Equal entries are not always repeated.
# Biological target: Cdk9/cyclinT1 (Homo sapiens, UniProt P50750)
# Assay: Cdk9/cyclinT1 Alpha Screen protocol
# Format: biochemical
# Set-up: Full length wild type Cdk9/cyclin T1 is purchased from Invitrogen; purchased Invitrogen PV4131
# Conditions: TFA salt; individual determinations; read-out: CDK9_cyclinT1_AS2_IC50
# Method: Cdk9/cyclinT1 Alpha Screen Protocol
# Full length wild type Cdk9/cyclin T1 is purchased from Invitrogen, cat#PV4131. […] The cdk7tide peptide substrate, biotin-[…] -OH, is a custom synthesis purchased from the Tufts University Core Facility. The final concentration of cdk7tide peptide substrate is 200 nM. […] Phospho-Rpb1 CTD (ser2/5) substrate antibody is purchased from Cell Signaling Technology. The final concentration of antibody is 0.67 ug/ml. The Alpha Screen Protein A detection kit containing donor and acceptor beads is purchased from PerkinElmer Life Sciences. The final concentration of both donor and acceptor beads is 15 ug/ml. Alpha Screen is used for detection. […] The biotinylated-cdk7tide peptide substrate is bound to the streptavidin coated donor bead. The antibody is bound to the protein A coated acceptor bead. The antibody will bind to the phosphorylated form of the biotinylated-cdk7tide peptide substrate, bringing the donor and acceptor beads into close proximity. Laser irradiation of the donor bead at 680 nm generates a flow of short-lived singlet oxygen molecules. When the donor and acceptor beads are in close proximity, the reactive oxygen generated by the irradiation of the donor beads initiates a luminescence/fluorescence cascade in the acceptor beads. This process leads to a highly amplified signal with output in the 530-620 nm range. Assays are carried out in 50 mM Hepes, pH=7.5, 10 mM MgCl2, 0.1% Bovine Serum Albumin, 0.01% Tween-20, 1 mM Dithiothreitol, 2.5% Dimethyl Sulfoxide. Stop and detection steps are combined using 50 mM Hepes, pH=7.5, 18 mM EDTA, 0.1% Bovine Serum Albumin, 0.01% Tween-20.
# Chain of Cdk9/cyclinT1 (P50750 whole entry): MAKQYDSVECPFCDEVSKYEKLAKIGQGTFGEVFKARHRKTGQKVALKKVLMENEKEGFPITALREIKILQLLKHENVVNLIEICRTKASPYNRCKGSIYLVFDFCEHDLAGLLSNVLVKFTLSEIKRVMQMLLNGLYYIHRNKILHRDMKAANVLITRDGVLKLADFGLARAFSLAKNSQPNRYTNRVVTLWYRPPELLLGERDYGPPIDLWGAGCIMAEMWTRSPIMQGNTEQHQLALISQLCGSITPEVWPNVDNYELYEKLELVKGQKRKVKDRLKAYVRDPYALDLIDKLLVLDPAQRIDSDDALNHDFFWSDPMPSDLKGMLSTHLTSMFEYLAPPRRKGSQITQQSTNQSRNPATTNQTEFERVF
# Chain of Cdk9/cyclinT1 (O60563 whole entry partner): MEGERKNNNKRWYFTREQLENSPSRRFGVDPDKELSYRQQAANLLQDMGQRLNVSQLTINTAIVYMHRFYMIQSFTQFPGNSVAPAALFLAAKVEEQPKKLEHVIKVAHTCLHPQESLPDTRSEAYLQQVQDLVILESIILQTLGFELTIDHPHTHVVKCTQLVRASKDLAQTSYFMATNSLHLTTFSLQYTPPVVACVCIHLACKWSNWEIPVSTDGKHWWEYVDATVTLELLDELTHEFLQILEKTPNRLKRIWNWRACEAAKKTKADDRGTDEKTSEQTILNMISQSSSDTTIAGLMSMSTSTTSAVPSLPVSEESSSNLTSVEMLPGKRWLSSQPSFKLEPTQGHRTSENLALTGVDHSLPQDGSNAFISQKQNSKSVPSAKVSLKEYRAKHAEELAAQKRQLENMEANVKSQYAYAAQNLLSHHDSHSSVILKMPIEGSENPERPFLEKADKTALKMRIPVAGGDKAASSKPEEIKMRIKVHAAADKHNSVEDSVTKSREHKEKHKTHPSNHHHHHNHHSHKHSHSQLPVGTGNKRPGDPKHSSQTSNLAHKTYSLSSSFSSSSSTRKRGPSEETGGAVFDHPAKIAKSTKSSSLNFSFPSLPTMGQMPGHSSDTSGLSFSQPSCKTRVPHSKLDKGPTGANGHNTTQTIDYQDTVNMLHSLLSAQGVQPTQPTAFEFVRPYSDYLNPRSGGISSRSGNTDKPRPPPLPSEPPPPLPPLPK
row,Compound,pIC50
1,COCCN[C@H]1CC[C@H](Nc2cc(-c3ccc(F)c(NCC4(C)CCOCC4)n3)c(Cl)cn2)CC1 [Compound 565],9.36 and 9.65
2,COC[C@@H](C)N[C@H]1CC[C@H](Nc2cc(-c3cccc(NCC4(C#N)CC4)n3)c(F)cn2)CC1 [Compound 551],10.12 and 9.55 and 10.03
3,C[C@H](N[C@H]1CC[C@H](Nc2cc(-c3cccc(NCC4(C#N)CCOCC4)n3)c(Cl)cn2)CC1)[C@@H](C)O [Compound 541],9.52
4,COC[C@@H](C)N[C@H]1CC[C@H](Nc2cc(-c3cccc(NCC4(C#N)CCOCC4)n3)c(F)cn2)CC1 [Compound 519],9.60 and 9.66 and 9.63 and 9.42
5,COC[C@H](C)N[C@H]1CC[C@H](Nc2cc(-c3cccc(NCC4(C#N)CCOCC4)n3)c(F)cn2)CC1 [Compound 520],9.34 and 9.38
6,COC[C@H](C)NC[C@H]1CC[C@H](Nc2cc(-c3cccc(NCC4(C#N)CCOCC4)n3)c(Cl)cn2)CC1 [Compound 533],9.06
7,COC[C@H](C)N[C@H]1CC[C@H](Nc2cc(-c3cccc(NCC4(C#N)CC4)n3)c(F)cn2)CC1 [Compound 566],9.10 and 9.07
8,N#CC1(CNc2cccc(-c3cc(N[C@H]4CC[C@H](N[C@@H]5CCCC[C@H]5O)CC4)ncc3Cl)n2)CCOCC1 [Compound 525],9.27
9,CC(C)(C)OCCN(CCOC(C)(C)C)[C@H]1CC[C@H](Nc2cc(-c3cccc(NCC4(C#N)CCOCC4)n3)c(Cl)cn2)CC1 [Compound 518],8.07
10,C[C@@](O)(CN[C@H]1CC[C@H](Nc2cc(-c3cccc(NCC4(C#N)CCOCC4)n3)ccn2)CC1)C(F)(F)F [Compound 580],9.01
11,CO[C@H]1CCN([C@H]2CC[C@@H](Nc3cc(-c4cccc(NCC5(C#N)CCOCC5)n4)c(Cl)cn3)CC2)C1 [Compound 513],7.58
12,N#CC1(CNc2cccc(-c3cc(N[C@H]4CC[C@H](N[C@H]5CCCC[C@@H]5O)CC4)ncc3Cl)n2)CCOCC1 [Compound 523],9.48
13,C[C@](O)(CN[C@H]1CC[C@H](Nc2cc(-c3cccc(NCC4(C#N)CCOCC4)n3)ccn2)CC1)C(F)(F)F [Compound 579],9.04

# Results, then the compound that gave them:
row,pIC50,Compound
1,9.70,N#CC1(CNc2cccc(-c3cc(N[C@H]4CC[C@H](NC[C@@H](O)CF)CC4)ncc3Cl)n2)CCOCC1 [Compound 544]
2,9.36 and 9.59,C[C@@](O)(CN[C@H]1CC[C@H](Nc2cc(-c3cccc(NCC4(C#N)CCOCC4)n3)c(Cl)cn2)CC1)C(F)(F)F [Compound 577]
3,9.69,COCCN[C@H]1CC[C@H](Nc2cc(-c3cncc(OCC4(C#N)CCOCC4)n3)c(F)cn2)CC1 [Compound 559]
4,9.77,N#CC1(CNc2cccc(-c3cc(N[C@H]4CC[C@H](NC[C@H](O)CF)CC4)ncc3Cl)n2)CCOCC1 [Compound 542]
5,9.33,N#CC1(COc2cncc(-c3cc(N[C@H]4CC[C@H](N)CC4)ncc3F)n2)CCOCC1 [Compound 534]
6,9.49,N#CC1(COc2cncc(-c3cc(N[C@H]4CC[C@H](NCCC(F)(F)F)CC4)ncc3Cl)n2)CCOCC1 [Compound 562]
7,9.14 and 9.58 and 9.24,COC[C@@H](C)N[C@H]1CC[C@H](Nc2cc(-c3cncc(OCC4(C#N)CCOCC4)n3)c(F)cn2)CC1 [Compound 553]

# Same assay, conditions: neutral species; individual determinations; read-out: CDK9_cyclinT1_AS2_IC50
row,Compound,pIC50
1,[2H][C@](C)(COC)N[C@H]1CC[C@H](Nc2cc(-c3cccc(NCC4(C#N)CCOCC4)n3)c(Cl)cn2)CC1 [Compound 597],> 9.00
2,[2H][C@@](C)(COC)N[C@H]1CC[C@H](Nc2cc(-c3cccc(NCC4(C#N)CCOCC4)n3)c(Cl)cn2)CC1 [Compound 596],> 9.00
3,COCCN[C@H]1CC[C@H](Nc2cc(-c3ccc(F)c(NCC4(C)CCOCC4)n3)c(Cl)cn2)CC1 [Compound 565],9.48 and 9.51
4,COC[C@@H](C)N[C@H]1CC[C@H](Nc2cc(-c3cccc(NCC4(C#N)CC4)n3)c(F)cn2)CC1 [Compound 551],9.53 and 9.52 and 9.18
5,COC[C@@H](C)N[C@H]1CC[C@H](Nc2cc(-c3cccc(NCC4(C#N)CCOCC4)n3)c(F)cn2)CC1 [Compound 519],9.63
6,N#CC1(CNc2cccc(-c3cc(N[C@H]4CC[C@H](N[C@H]5CCCC[C@@H]5O)CC4)ncc3Cl)n2)CCOCC1 [Compound 588],> 9.00
7,CC(C)(C)OCCN[C@H]1CC[C@H](Nc2cc(-c3cccc(NCC4(C#N)CCOCC4)n3)c(F)cn2)CC1 [Compound 527],9.23
8,CC(C)(O)CN[C@H]1CC[C@H](Nc2cc(-c3cccc(NCC4(C#N)CCOCC4)n3)c(F)cn2)CC1 [Compound 522],9.38
9,N#CC1(CNc2cccc(-c3cc(N[C@H]4CC[C@H](NCC5(O)CC5)CC4)ncc3Cl)n2)CCOCC1 [Compound 560],9.32
10,COC[C@@H](C)N[C@H]1CC[C@@H](Nc2cc(-c3cccc(NCC4(C#N)CCOCC4)n3)c(Cl)cn2)CC1 [Compound 601],7.60
11,COC[C@H](C)N[C@H]1CC[C@@H](Nc2cc(-c3cccc(NCC4(C#N)CCOCC4)n3)c(Cl)cn2)CC1 [Compound 602],8.09
12,N#CC1(CNc2cccc(-c3cc(N[C@H]4CC[C@H](N5CCn6c(nnc6C(F)(F)F)C5)CC4)ncc3Cl)n2)CCOCC1 [Compound 528],8.11
13,N#CC1(CNc2cccc(-c3cc(N[C@H]4CC[C@H](N5CC6(COC6)C5)CC4)ncc3Cl)n2)CCOCC1 [Compound 546],8.85 and 8.97 and 8.95
14,CO[C@H]1CCN([C@H]2CC[C@@H](Nc3cc(-c4cccc(NCC5(C#N)CCOCC5)n4)c(Cl)cn3)CC2)C1 [Compound 513],8.27
15,CO[C@H]1CCN([C@H]2CC[C@H](Nc3cc(-c4cccc(NCC5(C#N)CCOCC5)n4)c(F)cn3)CC2)C1 [Compound 516],9.08
16,N#CC1(CNc2cccc(-c3cc(N[C@H]4CC[C@H](NC5CC(F)(F)C5)CC4)ncc3Cl)n2)CCOCC1 [Compound 563],9.38
17,N#CC1(CNc2cccc(-c3cc(N[C@H]4CC[C@H](NCCCO)CC4)ncc3Cl)n2)CCOCC1 [Compound 571],9.40
18,C[C@H](N[C@H]1CC[C@H](Nc2cc(-c3cccc(NCC4(C#N)CCOCC4)n3)c(Cl)cn2)CC1)[C@@H](C)O [Compound 531],9.33
19,N#CC1(CNc2cccc(-c3cc(N[C@H]4CC[C@H](N5CCC6(COC6)C5)CC4)ncc3Cl)n2)CCOCC1 [Compound 570],8.87
20,N#CC1(CNc2cccc(-c3cc(N[C@H]4CC[C@@H](N5CCn6c(nnc6C(F)(F)F)C5)CC4)ncc3Cl)n2)CCOCC1 [Compound 530],7.43

# The next lines start with the values.
row,pIC50,Compound
1,> 9.00,C[C@@H](O)CN[C@H]1CC[C@H](Nc2cc(-c3cccc(NCC4(C#N)CCOCC4)n3)c(Cl)cn2)CC1 [Compound 585]
2,9.52,N#CC1(CNc2cccc(-c3cc(N[C@H]4CC[C@H](NCCO)CC4)ncc3Cl)n2)CCOCC1 [Compound 572]
3,9.29,COCCN[C@H]1CC[C@H](Nc2cc(-c3cncc(OCC4(C#N)CCOCC4)n3)c(F)cn2)CC1 [Compound 559]
4,7.60,C[C@H](CO)N[C@H]1CC[C@@H](Nc2cc(-c3cncc(OCC4(C#N)CCOCC4)n3)c(F)cn2)CC1 [Compound 593]
5,9.00,COC[C@H](C)N[C@H]1CC[C@H](Nc2cc(-c3cncc(OCC4(C#N)CCOCC4)n3)c(F)cn2)CC1 [Compound 589]
6,> 9.00,C[C@H](CO)N[C@H]1CC[C@H](Nc2cc(-c3cncc(OCC4(C#N)CCOCC4)n3)c(F)cn2)CC1 [Compound 592]
7,9.37,N#CC1(COc2cncc(-c3cc(N[C@H]4CC[C@H](NCCF)CC4)ncc3Cl)n2)CCOCC1 [Compound 550]
8,9.00,COC[C@@H](C)N(O)[C@H]1CC[C@H](Nc2cc(-c3cncc(OCC4(C#N)CCOCC4)n3)c(Cl)cn2)CC1 [Compound 581]
9,> 9.00,C[C@H](CO)N[C@H]1CC[C@H](Nc2cc(-c3cccc(NCC4(C#N)CCOCC4)n3)c(Cl)cn2)CC1 [Compound 584]
10,9.07,CC(C)(O)CN[C@H]1CC[C@H](Nc2cc(-c3cncc(OCC4(C#N)CCOCC4)n3)c(Cl)cn2)CC1 [Compound 524]
11,6.60,COC[C@@H](C)N[C@H]1CC[C@H](Nc2cc(-c3cnc(Cl)c(NCC4(C#N)CCOCC4)n3)c(Cl)cn2)CC1 [Compound 512]
12,9.00,COC[C@H](C)N[C@H]1CC[C@H](Nc2cc(-c3cncc(OCC4(C#N)CCOCC4)n3)c(Cl)cn2)CC1 [Compound 586]
13,9.40,C[C@H](O)CN[C@H]1CC[C@H](Nc2cc(-c3cccc(NCC4(C#N)CCOCC4)n3)c(Cl)cn2)CC1 [Compound 554]
14,9.12 and 9.55,N#CC1(CN[C@H]2CC[C@H](Nc3cc(-c4cncc(OCC5(C#N)CCOCC5)n4)c(Cl)cn3)CC2)CC1 [Compound 567]
15,9.20,COCCN[C@H]1CC[C@H](Nc2cc(-c3cncc(OCC4(C#N)CC4)n3)c(F)cn2)CC1 [Compound 556]
16,> 9.00,C[C@H](CO)N[C@H]1CC[C@@H](Nc2cc(-c3cncc(OCC4(C#N)CCOCC4)n3)c(Cl)cn2)CC1 [Compound 591]
17,9.40,N#CC1(CNc2cccc(-c3cc(N[C@H]4CC[C@H](NCC(O)CF)CC4)ncc3Cl)n2)CCOCC1 (stereo partly shown) [Compound 535]
18,8.30,C[C@H](CO)N[C@H]1CC[C@H](Nc2cc(-c3cncc(OCC4(C#N)CCOCC4)n3)c(Cl)cn2)CC1 [Compound 590]
19,> 9.00,[2H]C([2H])([2H])OCC(C)N[C@H]1CC[C@H](Nc2cc(-c3cncc(OCC4(C#N)CCOCC4)n3)c(Cl)cn2)CC1 (stereo partly shown) [Compound 595]
20,9.26,N#CC1(COc2cncc(-c3cc(N[C@H]4CC[C@H](NCCC(F)(F)F)CC4)ncc3Cl)n2)CCOCC1 [Compound 562]
21,7.26,N#CC1(COc2cncc(-c3cc(N[C@H]4CC[C@@H](N5CCCOCC5)CC4)ncc3Cl)n2)CCOCC1 [Compound 549]
22,9.35,N#CC1(COc2cncc(-c3cc(N[C@H]4CC[C@H](NC[C@H](O)C(F)(F)F)CC4)ncc3Cl)n2)CCOCC1 [Compound 574]
23,9.67,N#CC1(COc2cncc(-c3cc(N[C@H]4CC[C@H](NC[C@@H](O)C(F)(F)F)CC4)ncc3Cl)n2)CCOCC1 [Compound 575]
24,9.18,COC[C@@H](C)N[C@H]1CC[C@H](Nc2cc(-c3cncc(OCC4(C#N)CCOCC4)n3)c(F)cn2)CC1 [Compound 553]
